# In US7473682B2, “Angiogenic peptides and uses thereof” (Ramot at Tel Aviv University Ltd., priority 2003, dated 2009):
# “Also recorded” adds a separate entry of the source.
# Experiments:
# [1] = tested on: HUVECs (ECs); test: Proliferation of ECs (HUVECs) in the presence of synthetic peptides ([^3H]-Thymidine uptake); type: cell-based, human; details: for Highest proliferative response of ECs, fold increase / [^3H]-Thymidine uptake in ECs: normoxia; for [^3H]-Thymidine uptake in ECs: 0.05-100 ng/ml; for [^3H]-Thymidine uptake in ECs / [^3H]-Thymidine uptake / proliferation of ECs under and following hypoxia: 24 hours
# Procedure: Proliferation of ECs in the presence of synthetic peptides—ECs were incubated in the presence of EBM-2 medium containing supplements (Cambrex BioWhittaker Cell Biology Products, Walkersville, USA). Cells were passaged every 3 days by harvesting cells with 0.25% […] (Biological Industries) and re-plating the cells at a concentration of 10^4 cells per a 25 cm^2 flask. ECs from passage 3 were used for proliferation experiments.
# ECs (12×10^3 cells/well) were seeded on 24-well plates in EBM-2 medium containing supplements. Following a 24-hours incubation, cells were subjected to 24 hours of starvation in supplements-free medium (SFM). Synthetic peptides (SP, LT, TR, and VL) were each added at concentrations of 0.05, 0.1, 1, 10, or 100 ng/ml for 24 hours. For a proliferation assay, 2 μCi/well of [^3H]-Thymidine (SIGMA, Rehovot, Israel) were added for a 6-hour incubation, following which the plates were washed 3 times with PBS. For cell lysis, the plates were incubated for 15 minutes at 37° C. with 300 μl/well of 0.5 M NaOH. Subsequently, cell lysates were transferred to scintillation vials containing 2 ml of scintillation liquid (Ultima Gold, Packard Bioscience, Meriden, Conn., USA) and counted (cpm/min) in a β counter (Scintillation β Counter 1600 TR, Packard A Camberra Company, Meriden, Conn., USA).
# (§1) Synthetic peptides induced proliferation or migration after and under hypoxia treatment—Cell proliferation or migration assays were performed as described in Example 3, hereinabove, except that cells were divided to 3 groups: control cells, cells after exposure to hypoxia conditions or cells proliferating under hypoxia conditions. For cell proliferation assays, ECs were incubated with QF, LT and SP and MVECs were incubated with LT, SP, and YR. For cell migration assays, ECs were incubated with EBM-2 and MVECs were incubated with EBM-MV media.
# [2] = tested on: dermal microvascular endothelial cells (MVECs); test: Proliferation of dermal microvascular endothelial cells (MVECs) in the presence of synthetic peptides; type: cell-based; details: for Increase of MVECs proliferation response / [^3H]-Thymidine uptake in MVECs: normoxia; for [^3H]-Thymidine uptake in MVECs: 0.1-100 ng/ml, 24 hours
# Procedure: Proliferation of dermal microvascular endothelial cells (MVECs) in the presence of synthetic peptides—MVECs were incubated with synthetic peptides (LT, SP, and YR) as described above for HUVECs (ECs), except that the MVECs were seeded in EBM-MV medium containing supplements (Cambrex BioWhittaker Cell Biology Products) and MVECs from passage 4 (rather than 3) were used for proliferation experiments.
# as §1
# [3] = tested on: HUVECs (ECs); test: EC (HUVEC) migration assay with synthetic peptides; type: cell-based, human; details: 5, 10, 20 and 50 ng/ml, 5 hours
# Procedure: Migration assays in the presence of synthetic peptides—EC migration was evaluated as described in Example 2, hereinabove. Following typsinization, ECs (25×10^3) were incubated in migration chambers. For the chemoattactant migration assay, synthetic peptides were added to the feeder tray at 5, 10, 20, and 50 ng/ml and incubated with the cells for 5 or 15 hours. For migration activation assays, synthetic peptides at 0.1, 1, and 10 ng/ml were incubated with the cells in the migration chamber for 5 or 15 hours.
# as §1
# [4] = tested on: HUVECs (ECs); test: Tube formation assay, ECs (HUVECs); type: cell-based, human; details: for EC tube formation compared to untreated cells: normoxic conditions, 10 ng/ml, matrigel
# Procedure: (§2) Tube formation assay—ECs from passage 3 or MVECs from passage 4 were harvested with trypsin and incubated for 24 hours in SFM. Twenty-four—well plates were pre-coated with 250 μl of Cultrex Basement Membrane Extract with reduced growth factors (R&D Systems, Minneapolis, Minn., USA). Five hundred microliters of medium containing 10^6 cells were transferred to the coated wells. Synthetic peptides, FGF, YR, QF, or VL were added to ECs, and VEGF, YR, QF, or VL were added to MVECs at 10 ng/ml. Plates were incubated for 24 hours at 37° C. in the presence of 5% CO2. HUVECs and MVECs were photographed under a light microscope at 20 hours and 8 hours, respectively.
# (§3) Tube formation assay after and under hypoxia treatment—Tube formation assay was performed as described in Example 3, hereinabove, except that the cells were divided to 3 groups: control cells, cells after exposure to hypoxia conditions, and cells on matrigel basement that form tubes under hypoxia treatment.
# [5] = tested on: MVECs; test: Tube formation assay, MVECs; type: cell-based; details: for MVEC tube formation compared to untreated cells: normoxic conditions, 10 ng/ml, matrigel
# Procedure: as §2, §3
# [6] = tested on: VEGF-C; test: Real time PCR gene expression in MVECs, VEGF-C; type: cell-based; set-up: key: increased (+); non-increased (−); details: 1 ng/ml peptide
# Procedure: Real Time PCR—MVECs from passage 3 were incubated for 24 hours in EBM-MV supplement-free medium (starving media). Following starvation, 1 ng/ml of synthetic peptides LT, QF, SP, TR, YR, and VL and 10 ng/ml of VEGF were added to the plates. Following 1.5 or 6 hours of incubation, total RNA was extracted using TRIsol reagent (Invitrogen Life Technologies, Carlsbad Calif., USA) and 0.8 μg of the extracted RNA was used as a template for reverse transcription (Invitrogen) using random primers (SuperScript III First-Strand Synthesis System for RT-PCR (hvitrogen, Carlsbad Calif., USA) according to the manufacturer's instructions. Resulting cDNAs were subjected to real time PCR amplification using the ABI prism 7000 Sequence Detection System (Applied Biosystems, Foster City, Calif., USA). Oligonucleotide primers were designed using Primer Express Software (Applied Biosystems, Foster City, Calif., USA) according the translated region of VEGF-A (Accession No:NM_003376), VEGF-C (Accession No:NM_005429), KDR (Accession No:NM_002253), FLT-1 (Accession No:NM_002019), HIF-α (Accession No:HSU22431), and GAPDH (Accession No:NM_002046) and are listed in Table 6, hereinbelow. Briefly, a reaction mixture of 20 μl consisting of DDW, oligonucleotide primers (500 nM), cDNA (3 μl), and SYBR Green PCR master kit (Applied Biosystems, Foster City, Calif., USA) was subjected to an amplification program of 15 seconds at 95° C., and 60 seconds at 60° C. for 40 cycles. Results were analyzed using the Sequence Detector Software Version 1 (Applied Biosystenis).
# Peptides effect on gene expression in MVECs—The effect of the synthetic peptides on the expression in MVECs of selected genes (VEGF-A, VEGF-C, KDR, FLT-1 and HIF-1α) related to the VEGF pathway (a major pathway that participated in angiogenic process) was tested. Synthetic peptides were added at 1 ng/ml for 1.5 and 6 hours. After incubation with peptide, RNA was extracted from MVECs and Real Time PCR was performed. Gene expression was calculated as peptide/control (cells without peptide treatment) ratio.
# [7] = under hypoxia conditions, 18 hours
Sequence,Increase of EC proliferation after hypoxia ([1]; 10 ng/ml) [fold],"Highest proliferative response of ECs, fold increase ([1]; 10 ng/ml) [fold]",[^3H]-Thymidine uptake in ECs [1],[^3H]-Thymidine uptake / proliferation of ECs under and following hypoxia [1],"Increase of EC proliferation under hypoxia ([1]; under hypoxia, 1 ng/ml) [fold]",[^3H]-Thymidine uptake / proliferation of MVECs after and under hypoxia [2],Increase of MVECs proliferation after hypoxia ([2]; 1 ng/ml) [fold],Increase of MVECs proliferation response ([2]; 1 ng/ml) [fold],[^3H]-Thymidine uptake in MVECs [2],Increase of MVECs proliferation under hypoxia ([2]; 10 ng/ml) [fold],"EC migration, peptides as chemoattractants in feeder tray [3]",EC tube formation compared to untreated cells [4],MVEC tube formation compared to untreated cells [5],VEGF-C Expression after 1.5 hours [6],VEGF-C Expression after 6 hours [6],Increase of MVECs proliferation after hypoxia ([2]; 10 ng/ml) [fold],Increase of MVECs proliferation under hypoxia ([2]; 1 ng/ml) [fold],"EC tube formation under hypoxia [4, 7]","MVEC tube formation under hypoxia [5, 7]","Highest proliferative response of ECs, fold increase ([1]; 1 ng/ml) [fold]"
LLADTTHHRPWT (Phage displayed peptide) [LT],3.5,1.7,significant dose-dependent increase,significant dose-dependent increase,1.7,significant dose-dependent increase,1.7,1.8,significant increase,1.7,dose-dependent induced migration,did not induce tube formation,did not induce tube formation,+,+,–,–,–,–,–
QPWLEQAYYSTF (Phage displayed peptide) [QF],–,–,–,did not show increase in proliferation,–,did not show increase proliferation,–,–,–,–,–,increased tube formation; also recorded: significant increase in tube formation,significant increase in tube formation,+,+,–,–,–,–,–
SAHGTSTGVPWP (Phage displayed peptide),2,1.6,significant dose-dependent increase,significant dose-dependent increase,–,significant dose-dependent increase,–,1.4,significant increase,–,dose-dependent induced migration,did not induce tube formation,did not induce tube formation,+,+,1.5,1.9,effective only in tube formation under hypoxia conditions,effective only in tube formation under hypoxia conditions,–
TLPWLEESYWRP (Phage displayed peptide) [TR],–,1.8,significant dose-dependent increase,–,–,–,–,–,–,–,smaller effect of induced migration,–,–,+,+,–,–,–,–,–
VPWMEPAYQRFL (Phage displayed peptide) [VL],–,–,significant dose-dependent increase,–,–,–,–,–,–,–,smaller effect of induced migration,increased tube formation,significant increase in tube formation,+,+,–,–,–,–,1.8
YPHIDSLGHWRR (Phage displayed peptide) [YR],–,–,–,–,–,–,–,1.7,significant increase,–,–,increased tube formation,significant increase in tube formation,–,–,–,–,–,–,–
